As a reminder, the IC50 is the concentration that gives 50% inhibition.

The test system of test [1] is adeno carcinomic human alveolar basal epithelial cell line (A-549). Kind of test: MTT cell viability / in vitro cytotoxicity assay, A-549. It is filed as cell-based. Conditions: A549, A-549 cells, 48 h incubation, read-out: anticancer IC50 A-549. As to the method: (§1) The human breast cancer cell line (MCF-7), and adeno carcinomic human alveolar basal epithelial cell line (A-549), were used in the present study for the investigation of cell viability assay of the synthesized compounds.
(§2) The cells were seeded in a 96-well flat-bottom microplate and maintained at 37° C. in 95% humidity and 5% CO2 overnight. The microplates were then treated with different concentrations (5-100 μM) of the samples. The cells were incubated for another 48 h. The wells were washed twice with PBS and 20 μL of the MTT staining solution was added to each well and the plate was incubated at 37° C. After 4 h, 100 μL of DMSO was added to each well to dissolve the formazan crystals and absorbance was recorded with a 570 nm using a microplate reader.
(§3) In vitro cytotoxicity was performed by 3-(4,5-dimethylthiazol-2-yl)-2,5-di-phenyltetrazolium bromide (MTT) assay. Tested compounds were dissolved in DMSO by heating at 95° C. for 10 min, cooled at room temperature and final stock concentration of 1 mg/mL was prepared in DMEM (final DMSO concentration was <1%). The stock solutions were serially diluted to obtain the concentration range of 25 to 400 μM using DMEM, and cells were treated in triplicates. Untreated cells represented a control group and pac. treated as a positive control. After 48 h of incubation, the media was aspirated, 100 μL MTT (1 mg/mL) was added to each well and the plate was incubated at 37° C. for 4 h. After incubation, the media/MTT solution was aspirated and 100 μL DMSO was added to all the wells. Using a multi-mode microplate reader, a uniform shaking (for 5 min) was applied to dissolve Formazan crystals and the absorbance was recorded at 570 nm. Cell viability was calculated using the following equation: […]
(§4) The 50% […] inhibitory concentration (IC50) was determined using Prism software version 7. Using graph Pad Prism Version 5.1, IC50 values of the compounds were calculated.
(§5) Statistical analysis of the cytotoxicity data was performed on GraphPad Prism. All cytotoxicity experiments were conducted in triplicates. Results were analyzed as the standard error of the mean (SEM) and one-way analysis of variance (ANOVA) and the Dunnet multiple comparison test was used to evaluate the treated groups and the control. Further Bonferroni post-tests were performed for comparison of the complex with cis-platin. Differences were considered significant when p<0.05.

Test [2] relates to human breast cancer cell line (MCF-7). Kind of test: MTT cell viability / in vitro cytotoxicity assay, MCF-7. The test is classed as cell-based. As to conditions: MCF7, MCF-7 cells, 48 h incubation, read-out: anticancer IC50 MCF-7. As to the method:
as §1, §2, §3, §4, §5

Consider `COC(=O)c1c(C(=O)OC)c2cc(C)c3ccccc3n2c1C(=O)c1cc(C(F)(F)F)cc(C(F)(F)F)c1` [Compound 3a, Dimethyl-1-(3,5-bis(trifluoromethyl)benzoyl)-5-methylpyrrolo[1,2-a]quinoline-2,3-dicarboxylate], for which the IC50 in test [1] was 433 nM; in test [2], 272 nM.
The like results for `CCOC(=O)c1cc(C(=O)c2cc(C(F)(F)F)cc(C(F)(F)F)c2)n2c1cc(C)c1ccccc12` [Compound 3b, Ethyl-1-(3,5-bis(trifluoromethyl)benzoyl)-5-methylpyrrolo[1,2-a]quinoline-3-carboxylate] were, in that order, 99 nM and 27 nM.
For `COC(=O)c1c(C(=O)OC)c2cc(C)c3ccccc3n2c1C(=O)c1ccccc1[N+](=O)[O-]` [Compound 3c, Dimethyl-5-methyl-1-(2-nitrobenzoyl)pyrrolo[1,2-a]quinoline-2,3-dicarboxylate], the half-maximal inhibitory concentration (IC50) in test [1] came out at 316 nM; in test [2], 15 nM.
As to `CCOC(=O)c1cc(C(=O)c2ccccc2[N+](=O)[O-])n2c1cc(C)c1ccccc12` [Compound 3d, Ethyl-5-methyl-1-(2-nitrobenzoyl)pyrrolo[1,2-a]quinoline-3-carboxylate], the results for the 50% inhibitory concentration (IC50) in test [1] and in test [2] were 291 nM and 85 nM, respectively.
For the molecule `COC(=O)c1c(C(=O)OC)c2cc(C)c3ccccc3n2c1C(=O)c1ccc(F)cc1` [Compound 3i, Dimethyl-1-(4-fluorobenzoyl)-5-methylpyrrolo[1,2-a]quinoline-2,3-dicarboxylate], the figures for the IC50 in test [1] and in test [2] were 183 nM and 209 nM, respectively.

For the origin of these results see patent publication US12194029B1, “Ethyl-1-(substitutedbenzoyl)-5-methylpyrrolo[1,2-a]quinoline-3-carboxylates as anticancer agents” (KING FAISAL UNIVERSITY, priority 2023, dated 2025).
